Measurements from patent US20160251403A1, “PEPTIDE COMBINATIONS AND USES THEREOF IN TREATING DUST MITE ALLERGY” (ALK-ABELLO A/S, priority 2013, published 2016).
Changes are numbered by the printed parent chain. No end group written: not given here.

Experiments:
[1] = molecular target: T1, DPA10103-DPB10201 (Homo sapiens, UniProt P04440+P20036, A65V/A84D/A85E/K98E); test: Competitive MHC class II binding assay, DPA10103-DPB10201
T1 sequence (P20036 29-260): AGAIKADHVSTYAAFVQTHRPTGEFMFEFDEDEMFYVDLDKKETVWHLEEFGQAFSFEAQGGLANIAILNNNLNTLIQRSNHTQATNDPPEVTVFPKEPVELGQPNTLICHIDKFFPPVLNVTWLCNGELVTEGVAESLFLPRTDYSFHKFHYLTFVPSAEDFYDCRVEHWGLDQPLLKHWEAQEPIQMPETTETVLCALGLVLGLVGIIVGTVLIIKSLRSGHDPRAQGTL
T1 sequence (P04440 30-258 A65V/A84D/A85E/K98E): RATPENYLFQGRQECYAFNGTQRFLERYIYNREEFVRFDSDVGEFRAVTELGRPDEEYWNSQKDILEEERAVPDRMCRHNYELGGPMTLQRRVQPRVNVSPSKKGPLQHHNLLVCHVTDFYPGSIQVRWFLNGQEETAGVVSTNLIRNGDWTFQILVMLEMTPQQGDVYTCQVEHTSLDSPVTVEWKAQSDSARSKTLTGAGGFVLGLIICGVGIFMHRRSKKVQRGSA

[2] = molecular target: T2, DPA10103-DPB10401 (Homo sapiens, UniProt P04440+P20036); test: Competitive MHC class II binding assay, DPA10103-DPB10401
T2 sequence (P20036 29-260): T1 sequence (P20036 29-260)
T2 sequence (P04440 30-258): T1 sequence (P04440 30-258 A65V/A84D/A85E/K98E) with V36A, D55A, E56A, E69K

[3] = molecular target: DQA10501-DQB10301 (Homo sapiens, UniProt P01909+P01920); test: Competitive MHC class II binding assay, DQA10501-DQB10301
[4] = molecular target: DRB1_0101 (Homo sapiens, UniProt P01903+P01911, A100R/D57E/F55L/F60I/F76Y/I96L/L162R/M171V/P40L/Q125E/R42F/V115G/Y59C); test: Competitive MHC class II binding assay, DRB1_0101;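 note: competition against a radiolabeled probe peptide (0.1–1 nM) for purified HLA class II protein over 2–4 days, bound counts read after antibody capture, six competitor levels across 100,000-fold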
[5] = molecular target: DRB1_1101 (Homo sapiens, UniProt P01903+P01911, A100R/A169T/A87E/I96F/K41T/L162R/M171V/P40S/Q125H/Q178H/Q39Y/Q99D/R42S/S66Y/T262R/V115G/W38E); test: Competitive MHC class II binding assay, DRB1_1101
[6] = molecular target: DRB1_0901 (Homo sapiens, UniProt P01903+P01911, A100R/A103E/D57H/D86V/F55Y/F60I/F76Y/I96F/K127E/L162R/M171V/P40D/Q125H/Q99R/R33Q/R42F/S133A/S66N/T210M/V115G/W38K/Y107V/Y59G/Y89S); test: Competitive MHC class II binding assay, DRB1_0901;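 note: displacement of a radiolabeled probe peptide from purified HLA class II protein, bound counts read after two to four days incubation, six concentrations spanning 100,000-fold, unlabeled probe as reference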
[7] = molecular target: DRB3_0202 (Homo sapiens, UniProt P01903+P79483, A212P/D57E/F66Y/L67A/R103Q/R218S/R40L/S89Y/T80R/V86D/Y55F/Y59H); test: Competitive MHC class II binding assay, DRB3_0202
[8] = molecular target: DQA10102-DQB10602; test: Competitive MHC class II binding assay, DQA10102-DQB10602; conditions: read-out: HLA-DQA10102-DQB10602; positive binding at cutoff 1000 nM
[9] = molecular target: DRB1_0701 (Homo sapiens, UniProt P01903+P01911, A100R/A102G/A103Q/D57E/D86V/E43K/F76Y/K127E/L162R/M171V/P40G/Q125H/Q99D/R33Q/R42Y/R54Q/S133A/S66F/T210M/V115G/Y107V/Y59L/Y89S); test: Competitive MHC class II binding assay, DRB1_0701;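 note: displacement of a radiolabeled reference peptide from purified HLA class II protein, with complex-bound radioactivity counted after 2–4 days of incubation and six concentrations spanning a 100,000-fold range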
[10] = molecular target: DRB1_0802 (Homo sapiens, UniProt P01903+P01911, A100R/A103L/A169T/F76Y/H45Y/I96F/K41T/L162R/M171V/P40S/Q125H/Q178H/Q39Y/Q99D/R218S/R42G/S66Y/V115G/W38E); test: Competitive MHC class II binding assay, DRB1_0802
[11] = molecular target: DRB4_0101 (Homo sapiens, UniProt P01903+P13762, G164S); test: Competitive MHC class II binding assay, DRB4_0101
[12] = molecular target: DRB5_0101 (Homo sapiens, UniProt P01903+Q30154); test: Competitive MHC class II binding assay, DRB5_0101
[13] = molecular target: DRB1_1501 (Homo sapiens, UniProt P01903+P01911); test: Competitive MHC class II binding assay, DRB1_1501
[14] = molecular target: DRB1_1302 (Homo sapiens, UniProt P01903+P01911, A100E/A169T/K41T/L162R/M171V/P40S/Q125H/Q178H/Q39Y/Q99D/R42S/S66N/T262R/V115G/W38E/Y61H); test: Competitive MHC class II binding assay, DRB1_1302;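 note: purified HLA class II protein incubated two to four days with a radiolabeled reference binder and test peptide at six concentrations over a 100,000-fold range, complex-bound radioactivity counted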
[15] = molecular target: DRB1_0405 (Homo sapiens, UniProt P01903+P01911, A100R/A169T/D86S/F76Y/I96L/K127E/L162R/M171V/N62H/P40V/Q125Y/R42H/S133A/S149N/S66Y/V115G/V209L/W38E); test: Competitive MHC class II binding assay, DRB1_0405
[16] = molecular target: DRB1_1201 (Homo sapiens, UniProt P01903+P01911, A100R/A169T/D57E/D86V/F55L/H45Y/K41T/L162R/M171V/P40S/Q125H/Q178H/Q39Y/Q99D/R42G/S66L/T262R/V114A/V67L/W38E/Y59H/Y61H/Y89S); test: Competitive MHC class II binding assay, DRB1_1201
[17] = molecular target: DQA10501-DQB10201 (Homo sapiens, UniProt P01909+P01920, A45G/A70V/D89A/E106A/E77G/E98D/H199R/L107V/N214S/P84L/P87L/T103K/T109R/T172A/T60S/V78E/V99I/Y58L/Y62S/Y69I/Y79F); test: Competitive MHC class II binding assay, DQA10501-DQB10201
[18] = molecular target: DRB1_0301 (Homo sapiens, UniProt P01903+P01911, A100K/A102G/A103R/A169T/F55Y/I96L/K41T/L162R/M171V/P40S/Q125H/Q178H/Q39Y/R42S/S66N/T106N/T262R/W38E/Y61H); test: Competitive MHC class II binding assay, DRB1_0301
[19] = molecular target: DRB1_0401 (Homo sapiens, UniProt P01903+P01911, A100K/A169T/F76Y/I96L/K127E/L162R/M171V/N62H/P40V/Q125Y/R42H/S133A/S149N/S66Y/V115G/V209L/W38E); test: Competitive MHC class II binding assay, DRB1_0401
[20] = molecular target: DRB3_0101 (Homo sapiens, UniProt P01903+P79483); test: Competitive MHC class II binding assay, DRB3_0101

Measured: IC50

CC[C@H](C)[C@H](NC(=O)[C@H](CCSC)NC(=O)[C@H](CCCNC(=N)N)NC(=O)[C@H](Cc1ccccc1)NC(=O)[C@H](CCCCN)NC(=O)[C@@H](NC(=O)[C@H](CCSC)NC(=O)[C@H](CC(N)=O)NC(=O)[C@H](Cc1ccc(O)cc1)NC(=O)[C@@H](NC(=O)[C@@H](N)CCC(=O)O)[C@@H](C)CC)C(C)C)C(=O)N[C@@H](C)C(=O)NCC(=O)N[C@@H](CCC(N)=O)C(=O)N[C@@H](CCC(=O)O)C(=O)O [pep-117]
< 1 µM: [1] | [2]

CC[C@H](C)[C@H](NC(=O)CNC(=O)[C@@H](N)CCCNC(=N)N)C(=O)N[C@@H](CCC(=O)O)C(=O)N[C@@H](Cc1ccc(O)cc1)C(=O)N[C@H](C(=O)N[C@@H](CCC(N)=O)C(=O)N[C@@H](Cc1c[nH]cn1)C(=O)N[C@@H](CC(N)=O)C(=O)NCC(=O)N[C@H](C(=O)N[C@H](C(=O)N[C@@H](CCC(N)=O)C(=O)N[C@@H](CCC(=O)O)C(=O)N[C@@H](CO)C(=O)N[C@@H](Cc1ccc(O)cc1)C(=O)N[C@@H](Cc1ccc(O)cc1)C(=O)N[C@@H](CCCNC(=N)N)C(=O)N[C@@H](Cc1ccc(O)cc1)C(=O)N[C@H](C(=O)N[C@@H](C)C(=O)N[C@@H](CCCNC(=N)N)C(=O)O)C(C)C)C(C)C)C(C)C)[C@@H](C)CC [pep-123]
not listed: [18] | [19] | [20]
< 1 µM: all other assays above

IEYIQHNGVVQESYYRYVAR [pep-049]
not listed: [4] | [10] | [11]
< 1 µM: all other assays above
